For 21 compounds, IC50 results are on record in patent US9777002B2, “Inhibitors of the renal outer medullary potassium channel” (Merck Sharp & Dohme Corp., priority 2012, dated 2017).

The structures appear in SMILES notation.

By IC50 is commonly meant the concentration that inhibits the measured activity by half. Read a low IC50 as higher potency.

This experiment has as its target T1, hROMK (hKir1.1) (Homo sapiens, UniProt P48048).
T1 construct: expressed in transfected cells
T1 sequence (P48048 1-391): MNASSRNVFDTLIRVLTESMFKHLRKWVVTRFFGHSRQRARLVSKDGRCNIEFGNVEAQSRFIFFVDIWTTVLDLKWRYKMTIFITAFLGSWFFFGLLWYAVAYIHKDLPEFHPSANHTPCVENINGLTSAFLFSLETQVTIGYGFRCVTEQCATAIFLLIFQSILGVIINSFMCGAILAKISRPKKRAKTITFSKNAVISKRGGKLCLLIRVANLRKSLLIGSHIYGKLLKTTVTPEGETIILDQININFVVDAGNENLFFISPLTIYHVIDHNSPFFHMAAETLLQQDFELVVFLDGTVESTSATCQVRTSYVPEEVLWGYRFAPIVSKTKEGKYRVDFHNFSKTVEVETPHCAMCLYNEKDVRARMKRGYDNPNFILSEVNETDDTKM
Put plainly: Thallium Flux Assay. Type of experiment: cell-based. To be noted: HEK293 cells stably expressing hROMK (hKir1.1). On the procedure: Cell Culture Conditions—HEK293 cells stably expressing hROMK (hKir1.1) were grown at 37° C. in a 10% CO2 humidified incubator in complete growth media: Dulbecco's Modified Eagle Medium supplemented with non-essential amino acids, Penicillin/Streptomycin/Glutamine, G418 and FBS. At >80% confluency, aspirate the media from the flask and rinse with 10 mL Calcium/Magnesium-free PBS. Add 5 mL of 1× trypsin (prepared in Ca/Mg Free PBS) to T-225 flask and return flask to 37° C./CO2 incubator for 2-3 minutes. To dislodge the cell, gently bang the side of the flask with your hand. Triturate the cells completely and then transfer the cells to 25 mL complete media. Centrifuge at 1,500 rpm for 6 min followed by resuspension in complete growth media and determine cell concentration. For typical re-seeding, 4E6 cells/T-225 flask will attain >80% confluency in 4 days. Under ideal growth conditions and appropriate tissue culture practices, this cell line is stable for 40-45 passages.
FluxOR Kit Components (Invitrogen F10017)
• FluxOR™ Reagent (Component A) • FluxOR™ Assay Buffer (Component B)—10× Concentrate • PowerLoad™ Concentrate (Component C)—100× Concentrate • Probenecid (Component D)—Lyophilized sample is kept at −20° C. Water soluble, 100× after solubilization in 1 mL water. Store at 4° C. • FluxOR™ Chloride-free Buffer (Component E)—5× Concentrate • Potassium sulfate (K2SO4) Concentrate (Component F)—125 mM in water. Store at 4° C. • Thallium sulfate (Tl2SO4) Concentrate (Component G)—50 mM in water. Store at 4° C. • DMSO (dimethyl sulfoxide, Component H)—1 mL (100%) Reagent Preparation: FluxOR Working Solutions • 1000× FluxOR™ Reagent: Reconstitute a vial of component A in 100 μl DMSO; Mix well; Store 10 μl aliquots at −20° C. • 1× FluxOR™ Assay Buffer: Dilute Component B 10-fold with water; Adjust pH to 7.4 with Hepes/NaOH; Filter and store at 4° C. • Probenecid/Assay Buffer: 100 mL of 1× FluxOR™ Assay Buffer; 1 mL of reconstituted component D; Store at 4° C. • Loading Buffer (per microplate): 10 μl 1000× FluxOR™ Reagent; 100 μl component C; 10 mL Probenecid/Assay Buffer • Compound Buffer (per microplate): 20 mL Probenecid/Assay Buffer; 0.3 mM ouabain (10 mM ouabain in water can be stored in amber bottle/aluminum foil at room temperature); Test compound • 1× FluxOR™ Chloride-Free Buffer: Prepare 1× working solution in water. Can be stored at room temperature • Stimulant Buffer (prepared at 5× final concentration in 1× FluxOR™Chloride-Free Buffer): 7.5 mM Thallium sulfate and 0.75 mM Potassium sulfate (to give a final assay concentration of 3 mM Thallium/0.3 mM Potassium). Store at 4° C. when not in use. If kept sterile, this solution is good for months.
Assay Protocol—The ROMK channel functional thallium flux assay is performed in 384 wells, using the FLIPR-Tetra instrument. HEK-hKir1.1 cells are seeded in Poly-D-Lysine microplates and kept in a 37° C.-10% CO2 incubator overnight. On the day of the experiment, the growth media is replaced with the FluxOR™ reagent loading buffer and incubated, protected from light, at ambient temperature (23-25° C.) for 90 min. The loading buffer is replaced with assay buffer± test compound followed by 30 min incubation at ambient temperature, where the Thallium/Potassium stimulant is added to the microplate.
• 1. Seed HEK-hKir1.1 cells (50 μl at 20,000 cells/well) in 384-well PDL coated Microplates • 2. Allow cells to adhere overnight in humidified 37° C./10% CO2 incubator • 3. Completely remove cell growth media from microplate and replace with 25 μl loading buffer • 4. Incubate Microplate at room temperature, protected form light, for 90 min • 5. Remove loading buffer and replace with 25 μl 1× Assay Buffer±test compound. • 6. Incubate microplate at room temperature, protected from light, for 30 min • 7. At FLIPR-Tetra 384: Add stimulant (Thallium/Potassium) solution to microplate and monitor fluorescence. Excitation=400 nm, Emission=460 & 580 nm. Collect data for ˜10 min. […]
`COc1ccc(C(=O)NC2CCN(CC(O)c3ccc4c(c3C)COC4=O)CC2)cc1C#N` (stereo not drawn) [Example 10, 3-Cyano-N-(1-(2-hydroxy-2-(4-methyl-1-oxo-1,3-dihydroisobenzofuran-5-yl)ethyl)piperidin-4-yl)-4-methoxybenzamide] yielded an IC50 of 60 nM.
On to `Cc1c(CCN2CCC(NC(=O)c3ccc(C#N)c(F)c3)CC2)ccc2c1COC2=O` [Example 11, 4-Cyano-3-fluoro-N-(1-(2-(4-methyl-1-oxo-1,3-dihydroisobenzofuran-5-yl)ethyl)piperidin-4-yl)benzamide], for which it took 30 nM to reach half-maximal inhibition (IC50).
Under `Cc1c(C(O)CN2CCC(NC(=O)c3ccc4c(c3)COC4=O)CC2)ccc(F)c1C#N` (stereo not drawn) [Example 13, N-(1-(2-(3-Cyano-4-fluoro-2-methylphenyl)-2-hydroxyethyl)piperidin-4-yl)-1-oxo-1,3-dihydroisobenzofuran-5-carboxamide] stands 350 nM; under `COc1cc(C(=O)NC2CCN(CC(O)c3ccc(F)c(C#N)c3C)CC2)ccc1C#N` (stereo not drawn) [Example 14, 4-Cyano-N-(1-(2-(3-cyano-4-fluoro-2-methylphenyl)-2-hydroxyethyl)piperidin-4-yl)-3-methoxybenzamide], 70 nM; under `Cc1c(CCN2CCC(NC(=O)c3ccnc(-n4cnnn4)c3)CC2)ccc2c1COC2=O` [Example 15, N-(1-(2-(4-Methyl-1-oxo-1,3-dihydroisobenzofuran-5-yl)ethyl)piperidin-4-yl)-2-(1H-tetrazol-1-yl)isonicotinamide], 450 nM.
Next, `Cc1c(C(O)CN2CCC(NC(=O)c3ccc(C#N)c(F)c3)CC2)ccc2c1COC2=O` (stereo not drawn) [Example 16, 4-Cyano-3-fluoro-N-(1-(2-hydroxy-2-(4-methyl-1-oxo-1,3-dihydroisobenzofuran-5-yl)ethyl)piperidin-4-yl)benzamide]: 50 nM; `COc1cc(F)c(C#N)cc1C(=O)NC1CCN(CCc2ccc3c(c2C)COC3=O)CC1` [Example 17, 5-Cyano-4-fluoro-2-methoxy-N-(1-(2-(4-methyl-1-oxo-1,3-dihydroisobenzofuran-5-yl)ethyl)piperidin-4-yl)benzamide]: 30 nM; `Cc1cc(F)c(C(=O)NC2CCN(CCc3ccc4c(c3C)COC4=O)CC2)cc1C#N` [Example 18, 5-Cyano-2-fluoro-4-methyl-N-(1-(2-(4-methyl-1-oxo-1,3-dihydroisobenzofuran-5-yl)ethyl)piperidin-4-yl)benzamide]: 950 nM.
Under `Cc1cc(C(=O)NC2CCN(CCc3ccc4c(c3C)COC4=O)CC2)ncc1C#N` [Example 19, 5-Cyano-4-methyl-N-(1-(2-(4-methyl-1-oxo-1,3-dihydroisobenzofuran-5-yl)ethyl)piperidin-4-yl)picolinamide] stands 50 nM; under `COc1cc(F)c(C#N)cc1C(=O)NC1CCN(C[C@H](O)c2ccc3c(c2C)COC3=O)CC1` [Example 20, (R)-5-Cyano-4-fluoro-N-(1-(2-hydroxy-2-(4-methyl-1-oxo-1,3-dihydroisobenzofuran-5-yl)ethyl)piperidin-4-yl)-2-methoxybenzamide], 70 nM; under `COc1cc(F)c(C#N)cc1C(=O)NC1CCN(C[C@@H](O)c2ccc3c(c2C)COC3=O)CC1` [Example 21, (S)-5-Cyano-4-fluoro-N-(1-(2-hydroxy-2-(4-methyl-1-oxo-1,3-dihydroisobenzofuran-5-yl)ethyl)piperidin-4-yl)-2-methoxybenzamide], 150 nM.
The compound `Cc1cc(C(=O)NC2CCN(C[C@H](O)c3ccc4c(c3C)COC4=O)CC2)ncc1C#N` [Example 22, (R)-5-cyano-N-(1-(2-hydroxy-2-(4-methyl-1-oxo-1,3-dihydroisobenzofuran-5-yl)ethyl)piperidin-4-yl)-4-methylpicolinamide] had an IC50 of 20 nM.
Next, `Cc1cc(C(=O)NC2CCN(C[C@@H](O)c3ccc4c(c3C)COC4=O)CC2)ncc1C#N` [Example 23, (S)-5-cyano-N-(1-(2-hydroxy-2-(4-methyl-1-oxo-1,3-dihydroisobenzofuran-5-yl)ethyl)piperidin-4-yl)-4-methylpicolinamide]: 720 nM; `Cc1c([C@@H](O)CN2CCC(NC(=O)c3ccc(C#N)nc3)CC2)ccc2c1COC2=O` [Example 24, (R)-6-Cyano-N-(1-(2-hydroxy-2-(4-methyl-1-oxo-1,3-dihydroisobenzofuran-5-yl)ethyl)piperidin-4-yl)nicotinamide]: 150 nM.
Under `Cc1cc(C(=O)NC2CCN(C[C@H](O)c3ccc4c(c3C)COC4=O)CC2)ccc1C#N` [Example 25, (R)-4-Cyano-N-(1-(2-hydroxy-2-(4-methyl-1-oxo-1,3-dihydroisobenzofuran-5-yl)ethyl)piperidin-4-yl)-3-methylbenzamide] stands 30 nM; under `CCOc1cc(C#N)ccc1C(=O)NC1CCN(C[C@H](O)c2ccc3c(c2C)COC3=O)CC1` [Example 26, (R)-4-Cyano-2-ethoxy-N-(1-(2-hydroxy-2-(4-methyl-1-oxo-1,3-dihydroisobenzofuran-5-yl)ethyl)piperidin-4-yl)benzamide], 70 nM; under `Cc1c([C@@H](O)CN2CCC(NC(=O)c3ccc(C#N)cc3)CC2)ccc2c1COC2=O` [Example 27, (R)-4-Cyano-N-(1-(2-hydroxy-2-(4-methyl-1-oxo-1,3-dihydroisobenzofuran-5-yl)ethyl)piperidin-4-yl)benzamide], 30 nM.
Compound `Cc1c([C@@H](O)CN2CCC(NC(=O)c3ccc(C#N)cn3)CC2)ccc2c1COC2=O` [Example 28, (R)-5-Cyano-N-(1-(2-hydroxy-2-(4-methyl-1-oxo-1,3-dihydroisobenzofuran-5-yl)ethyl)piperidin-4-yl)picolinamide] came in with an IC50 of 30 nM.
Next, `Cc1c(CCN2CCC(NC(=O)c3cccc(-n4cnnn4)c3)CC2)ccc2c1COC2=O` [Example 30, N-(1-(2-(4-Methyl-1-oxo-1,3-dihydroisobenzofuran-5-yl)ethyl)piperidin-4-yl)-3-(1H-tetrazol-1-yl)benzamide]: 120 nM; `Cc1c(CCN2CCC(NC(=O)c3ccc(-n4cccn4)cc3)CC2)ccc2c1COC2=O` [Example 31, N-(1-(2-(4-Methyl-1-oxo-1,3-dihydroisobenzofuran-5-yl)ethyl)piperidin-4-yl)-4-(1H-pyrazol-1-yl)benzamide]: 100 nM.
Next, `Cc1c(CCN2CCC(NC(=O)c3cc(C#N)cs3)CC2)ccc2c1COC2=O` [Example 32, 4-Cyano-N-(1-(2-(4-methyl-1-oxo-1,3-dihydroisobenzofuran-5-yl)ethyl)piperidin-4-yl)thiophene-2-carboxamide]: 480 nM.
